According to patent US10995101B2, “2-oxo-thiazole derivatives as A2A inhibitors and compounds for use in the treatment of cancers” (iTeos Therapeutics SA, priority 2017, dated 2021):

Key:
A2A receptor = A2A receptor (Homo sapiens, UniProt P29274); experiment: Inhibition of cAMP production in HEK cells; assay type: cell-based; details: HEK-293 cells with A2A receptor
Procedure: When the A2A receptor is activated, is induces the production of cAMP.
HEK-293 cells with a stable transfection of A2A receptor were bought from PerkinElmer® (# ES-011-C). […] Fresh media without the selection marker was added on the day immediately before the experiment to stop selection pressure.
Stimulation buffer b) mimics the human situation by increasing the amount of albumin present in the assay.
Compounds of the present invention were diluted 100× in either of the buffers depending on the assay performed. […] The total volume of the reaction was 20 μl (10 μl of cells, 5 μl of antagonist and 5 μl of agonist). The reaction was finalized by adding 10 μl of 4× EU-cAMP tracer working solution and 10 μl of 4× ULight-anti-cAMP working solution. The TR-FRET signal was measured after 1 hour using a Spectramax Paradigm (Molecular Devices).

in vitro = details: human, Caco-2, pH 7.4
Procedure: 2 μM dosing solutions for reference compounds and test compounds are prepared by spiking the appropriate volume of intermediate solution to TB with and without 1 μM Zosuquidar. The final concentration of DMSO is no more than 1% (v/v).
Caco-2 cells are grown in MEM supplemented with 2 mM L-glutamine, 10% FBS, 100 U/mL penicillin-G and 100 μg/mL streptomycin. The cells are incubated at 37° C., 5% CO2 and relatively saturated humidity. After reaching 80-90% confluency, the cells are gently detached with 0.05% trypsin-EDTA solution.
TB and dosing solutions were pre-warmed to 37° C. before transport assay. The cell monolayer was washed twice with HBSS containing 10 mM HEPES. For A-B (apical to basolateral) directional transport assay, 75 μL dosing solution is added to the apical well. Fill each basolateral well with 250 μL TB. For B-A (basolateral to apical) directional transport assay, 250 μL of dosing solution is added to the basolateral well after filling each apical well with 75 μL TB. […] The plates are incubated for 120 minutes at 37° C. with 5% CO2 and saturated humidity. The time zero samples are generated by mixing 50 μL initial dosing solution of test compound or reference compound with 100 μL TB and 250 μL quench solution (acetonitrile (ACN) or other appropriate solvent with internal standard(s), based on the bioanalytical method development). At 120 minutes, 150 μL of solution is collected from each A-B receiver well followed by addition of 250 μL quench solution to get A-B receiver sample. And for other samples (A-B donor, B-A donor and receiver), 50 μL of solution is collected from each corresponding well followed by addition of 250 μL quench solution and 100 μL TB. All samples are vortex-mixed and centrifuged at 3220 g for 20 minutes. Subsequently, supernatant is diluted with ultra pure water for LC-MS/MS analysis. The concentrations of test compound in all samples are determined by LC-MS/MS and expressed as peak area ratio of analyte to internal standard.
The concentration of samples is expressed using the peak area ratio of Analyte to Internal Standard (Analyte/IS).
The efflux ratio is calculated using the following equation: Efflux ratio=Papp(A−B)/Papp(B−A) • where Papp (A−B) and Papp (B−A) are the Papp values of compound in Apical to Basolateral and Basolateral to Apical directional transport, respectively.

[1] = IC50 (nM) (3 nM NECA as agonist, 0.1% BSA), 3 nM NECA as agonist, 0.1% BSA
[2] = IC50 (nM) (5 nM NECA as agonist, 2% HSA), 5 nM NECA as agonist, 2% HSA
[3] = IC50 (nM) (5 μM Adenosine as agonist, 2.0% HSA), 5 μM Adenosine as agonist, 2.0% HSA

Sequence of A2A receptor (P29274 whole entry): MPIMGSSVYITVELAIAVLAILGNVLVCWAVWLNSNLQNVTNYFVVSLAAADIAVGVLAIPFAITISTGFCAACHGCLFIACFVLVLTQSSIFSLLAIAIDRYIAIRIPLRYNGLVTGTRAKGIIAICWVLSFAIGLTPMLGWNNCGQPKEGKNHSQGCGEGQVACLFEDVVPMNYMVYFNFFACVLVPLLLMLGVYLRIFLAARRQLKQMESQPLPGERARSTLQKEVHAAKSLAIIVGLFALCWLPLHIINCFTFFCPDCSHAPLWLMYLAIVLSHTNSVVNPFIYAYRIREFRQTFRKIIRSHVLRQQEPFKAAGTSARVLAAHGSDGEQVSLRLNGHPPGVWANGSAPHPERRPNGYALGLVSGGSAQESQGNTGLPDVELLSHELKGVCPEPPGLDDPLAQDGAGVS

`Nc1nc2c(sc(=O)n2CCN2CCN(c3ccc(OCC4CCNCC4)cc3F)CC2)c2nc(-c3ccco3)nn12` [Compound 25, 5-amino-3-(2-(4-(2-fluoro-4-(piperidin-4-ylmethoxy)phenyl)piperazin-1-yl)ethyl)-8-(furan-2-yl)thiazolo[5,4-e][1,2,4]triazolo[1,5-c]pyrimidin-2(3H)-one] gave an IC50 (A2A receptor; [1]) of 1.2 nM, an IC50 (A2A receptor; [2]) of 6 nM and an IC50 (A2A receptor; [3]) of 300 nM. The efflux ratio at 120 min, 2 μM (in vitro) was 472.
In the case of `Nc1nc2c(sc(=O)n2CCN2CCN(c3ccc(OCCN4CCNCC4)cc3F)CC2)c2nc(-c3ccco3)nn12` [Compound 27, 5-amino-3-(2-(4-(2-fluoro-4-(2-(piperazin-1-yl)ethoxy)phenyl)piperazin-1-yl)ethyl)-8-(furan-2-yl)thiazolo[5,4-e][1,2,4]triazolo[1,5-c]pyrimidin-2(3H)-one], the IC50 (A2A receptor; [1]) is reported as 0.3 nM, the IC50 (A2A receptor; [2]) is reported as 2 nM and the IC50 (A2A receptor; [3]) is reported as 112 nM. It also gave an efflux ratio at 120 min, 2 μM (in vitro) of 187.
In the case of `NCCNC(=O)c1ccc(N2CCN(CCn3c(=O)sc4c3nc(N)n3nc(-c5ccco5)nc43)CC2)c(F)c1` [Compound 30, 4-(4-(2-(5-amino-8-(furan-2-yl)-2-oxothiazolo[5,4-e][1,2,4]triazolo[1,5-c]pyrimidin-3(2H)-yl)ethyl)piperazin-1-yl)-N-(2-aminoethyl)-3-fluorobenzamide], the IC50 (A2A receptor; [1]) is reported as 0.4 nM, the IC50 (A2A receptor; [2]) is reported as 1 nM and the IC50 (A2A receptor; [3]) is reported as 42 nM. It also gave an efflux ratio at 120 min, 2 μM (in vitro) of 3.
Molecule `Nc1nc2c(sc(=O)n2CCN2CCN(c3ccc(C(=O)NCC(O)CO)cc3F)CC2)c2nc(-c3ccco3)nn12` (centres unmarked) [Compound 34, 4-(4-(2-(5-amino-8-(furan-2-yl)-2-oxothiazolo[5,4-e][1,2,4]triazolo[1,5-c]pyrimidin-3(2H)-yl)ethyl)piperazin-1-yl)-N-(2,3-dihydroxypropyl)-3-fluorobenzamide] has an IC50 (A2A receptor; [1]) of 0.3 nM, an IC50 (A2A receptor; [2]) of 6 nM and an IC50 (A2A receptor; [3]) of 207 nM. For the same molecule, the efflux ratio at 120 min, 2 μM (in vitro) was 192.
For `Nc1nc2c(sc(=O)n2CCN2CCN(c3ccc(CCC(=O)O)cc3F)CC2)c2nc(-c3ccco3)nn12` [Compound 40, 3-(4-(4-(2-(5-amino-8-(furan-2-yl)-2-oxothiazolo[5,4-e][1,2,4]triazolo[1,5-c]pyrimidin-3(2H)-yl)ethyl)piperazin-1-yl)-3-fluorophenyl)propanoic acid], the IC50 (A2A receptor; [1]) was 0.7 nM, the IC50 (A2A receptor; [2]) was 7 nM and the IC50 (A2A receptor; [3]) was 261 nM. The efflux ratio at 120 min, 2 μM (in vitro) was 25.
For `NC(=O)CNCCOc1ccc(N2CCN(CCn3c(=O)sc4c3nc(N)n3nc(-c5ccco5)nc43)CC2)c(F)c1` [Compound 45, 2-((2-(4-(4-(2-(5-amino-8-(furan-2-yl)-2-oxothiazolo[5,4-e][1,2,4]triazolo[1,5-c]pyrimidin-3(2H)-yl)ethyl)piperazin-1-yl)-3-fluorophenoxy)ethyl)amino)acetamide], the IC50 (A2A receptor; [1]) was 0.8 nM, the IC50 (A2A receptor; [2]) was 3 nM and the IC50 (A2A receptor; [3]) was 100 nM. It also gave an efflux ratio at 120 min, 2 μM (in vitro) of 41.
`Nc1nc2c(sc(=O)n2CCN2CCN(c3ccc(OC4CCNCC4)cc3F)CC2)c2nc(-c3ccco3)nn12` [Compound 47, 5-amino-3-(2-(4-(2-fluoro-4-(piperidin-4-yloxy)phenyl)piperazin-1-yl)ethyl)-8-(furan-2-yl)thiazolo[5,4-e][1,2,4]triazolo[1,5-c]pyrimidin-2(3H)-one] showed an IC50 (A2A receptor; [1]) of 1.8 nM, an IC50 (A2A receptor; [2]) of 1 nM and an IC50 (A2A receptor; [3]) of 43 nM. For the same molecule, the efflux ratio at 120 min, 2 μM (in vitro) was 329.
With `Nc1nc2c(sc(=O)n2CCN2CCN(c3ccc(OC4CCNC4)cc3F)CC2)c2nc(-c3ccco3)nn12` (centres unmarked) [Compound 48, 5-amino-3-(2-(4-(2-fluoro-4-(pyrrolidin-3-yloxy)phenyl)piperazin-1-yl)ethyl)-8-(furan-2-yl)thiazolo[5,4-e][1,2,4]triazolo[1,5-c]pyrimidin-2(3H)-one] the IC50 (A2A receptor; [1]) was 0.1 nM, the IC50 (A2A receptor; [3]) was 9 nM and the efflux ratio at 120 min, 2 μM (in vitro) was 166.
In the case of `CN(C)CCNC(=O)COc1ccc(N2CCN(CCn3c(=O)sc4c3nc(N)n3nc(-c5ccco5)nc43)CC2)c(F)c1` [Compound 51, 2-(4-(4-(2-(5-amino-8-(furan-2-yl)-2-oxothiazolo[5,4-e][1,2,4]triazolo[1,5-c]pyrimidin-3(2H)-yl)ethyl)piperazin-1-yl)-3-fluorophenoxy)-N-(2-(dimethylamino)ethyl)acetamide], the IC50 (A2A receptor; [1]) is reported as 0.3 nM, the IC50 (A2A receptor; [3]) is reported as 16 nM and the efflux ratio at 120 min, 2 μM (in vitro) is reported as 469.
For `NCCNC(=O)COc1ccc(N2CCN(CCn3c(=O)sc4c3nc(N)n3nc(-c5ccco5)nc43)CC2)c(F)c1` [Compound 52, 2-(4-(4-(2-(5-amino-8-(furan-2-yl)-2-oxothiazolo[5,4-e][1,2,4]triazolo[1,5-c]pyrimidin-3(2H)-yl)ethyl)piperazin-1-yl)-3-fluorophenoxy)-N-(2-aminoethyl)acetamide], the IC50 (A2A receptor; [1]) was 0.3 nM, the IC50 (A2A receptor; [2]) was 1 nM and the IC50 (A2A receptor; [3]) was 26 nM. For the same molecule, the efflux ratio at 120 min, 2 μM (in vitro) was 34.
`NC(=O)COc1ccc(N2CCN(CCn3c(=O)sc4c3nc(N)n3nc(-c5ccco5)nc43)CC2)c(F)c1` [Compound 54, 2-(4-(4-(2-(5-amino-8-(furan-2-yl)-2-oxothiazolo[5,4-e][1,2,4]triazolo[1,5-c]pyrimidin-3(2H)-yl)ethyl)piperazin-1-yl)-3-fluorophenoxy)acetamide] gave an IC50 (A2A receptor; [1]) of 0.8 nM, an IC50 (A2A receptor; [2]) of 3 nM and an IC50 (A2A receptor; [3]) of 138 nM. It also gave an efflux ratio at 120 min, 2 μM (in vitro) of 24.
Work on `CNCCN(C)C(=O)c1ccc(N2CCN(CCn3c(=O)sc4c3nc(N)n3nc(-c5ccco5)nc43)CC2)c(F)c1` [Compound 55, 4-(4-(2-(5-amino-8-(furan-2-yl)-2-oxothiazolo[5,4-e][1,2,4]triazolo[1,5-c]pyrimidin-3(2H)-yl)ethyl)piperazin-1-yl)-3-fluoro-N-methyl-N-(2-(methylamino)ethyl)benzamide] yielded an IC50 (A2A receptor; [1]) of 1 nM, an IC50 (A2A receptor; [2]) of 2 nM and an IC50 (A2A receptor; [3]) of 141 nM. It also gave an efflux ratio at 120 min, 2 μM (in vitro) of 205.
`CN(C)CCN(C)C(=O)c1ccc(N2CCN(CCn3c(=O)sc4c3nc(N)n3nc(-c5ccco5)nc43)CC2)c(F)c1` [Compound 56, 4-(4-(2-(5-amino-8-(furan-2-yl)-2-oxothiazolo[5,4-e][1,2,4]triazolo[1,5-c]pyrimidin-3(2H)-yl)ethyl)piperazin-1-yl)-N-(2-(dimethylamino)ethyl)-3-fluoro-N-methylbenzamide] showed an IC50 (A2A receptor; [1]) of 0.2 nM, an IC50 (A2A receptor; [2]) of 1 nM and an IC50 (A2A receptor; [3]) of 25 nM. The efflux ratio at 120 min, 2 μM (in vitro) was 1750.
For `C[C@H](CN(C)C)NC(=O)c1ccc(N2CCN(CCn3c(=O)sc4c3nc(N)n3nc(-c5ccco5)nc43)CC2)c(F)c1` [Compound 57, (R)-4-(4-(2-(5-amino-8-(furan-2-yl)-2-oxothiazolo[5,4-e][1,2,4]triazolo[1,5-c]pyrimidin-3(2H)-yl)ethyl)piperazin-1-yl)-N-(1-(dimethylamino)propan-2-yl)-3-fluorobenzamide], the IC50 (A2A receptor; [1]) was 0.2 nM, the IC50 (A2A receptor; [2]) was 2 nM and the IC50 (A2A receptor; [3]) was 56 nM. For the same molecule, the efflux ratio at 120 min, 2 μM (in vitro) was 2200.
Work on `CNCCNC(=O)COc1cc(N2CCN(CCn3c(=O)sc4c3nc(N)n3nc(-c5ccco5)nc43)CC2)c(F)cc1F` [Compound 62, 2-(5-(4-(2-(5-amino-8-(furan-2-yl)-2-oxothiazolo[5,4-e][1,2,4]triazolo[1,5-c]pyrimidin-3(2H)-yl)ethyl)piperazin-1-yl)-2,4-difluorophenoxy)-N-(2-(methylamino)ethyl)acetamide] yielded an IC50 (A2A receptor; [1]) of 0.5 nM, an IC50 (A2A receptor; [2]) of 1 nM and an IC50 (A2A receptor; [3]) of 21 nM. It also gave an efflux ratio at 120 min, 2 μM (in vitro) of 23.
Molecule `CN(C)CCNC(=O)COc1cc(N2CCN(CCn3c(=O)sc4c3nc(N)n3nc(-c5ccco5)nc43)CC2)c(F)cc1F` [Compound 63, 2-(5-(4-(2-(5-amino-8-(furan-2-yl)-2-oxothiazolo[5,4-e][1,2,4]triazolo[1,5-c]pyrimidin-3(2H)-yl)ethyl)piperazin-1-yl)-2,4-difluorophenoxy)-N-(2-(dimethylamino)ethyl)acetamide] has an IC50 (A2A receptor; [1]) of 0.3 nM, an IC50 (A2A receptor; [2]) of 1 nM and an IC50 (A2A receptor; [3]) of 12 nM. For the same molecule, the efflux ratio at 120 min, 2 μM (in vitro) was 264.
Molecule `CN(C)CCN(C)C(=O)c1cc(N2CCN(CCn3c(=O)sc4c3nc(N)n3nc(-c5ccco5)nc43)CC2)c(F)cc1F` [Compound 64, 5-(4-(2-(5-amino-8-(furan-2-yl)-2-oxothiazolo[5,4-e][1,2,4]triazolo[1,5-c]pyrimidin-3(2H)-yl)ethyl)piperazin-1-yl)-N-(2-(dimethylamino)ethyl)-2,4-difluoro-N-methylbenzamide] has an IC50 (A2A receptor; [1]) of 0.6 nM, an IC50 (A2A receptor; [2]) of 1 nM and an IC50 (A2A receptor; [3]) of 36 nM. For the same molecule, the efflux ratio at 120 min, 2 μM (in vitro) was 60.
`Nc1nc2c(sc(=O)n2CCN2CCN(c3cc(OCc4nnn[nH]4)c(F)cc3F)CC2)c2nc(-c3ccco3)nn12` [Compound 66, 3-(2-(4-(5-((1H-tetrazol-5-yl)methoxy)-2,4-difluorophenyl)piperazin-1-yl)ethyl)-5-amino-8-(furan-2-yl)thiazolo[5,4-e][1,2,4]triazolo[1,5-c]pyrimidin-2(3H)-one] gave an IC50 (A2A receptor; [1]) of 0.8 nM, an IC50 (A2A receptor; [2]) of 13 nM and an IC50 (A2A receptor; [3]) of 543 nM. The efflux ratio at 120 min, 2 μM (in vitro) was 1010.
Work on `Cn1cnc(COc2ccc(N3CCN(CCn4c(=O)sc5c4nc(N)n4nc(-c6ccco6)nc54)CC3)c(F)c2)n1` [Compound 67, 5-amino-3-(2-(4-(2-fluoro-4-((1-methyl-1H-1,2,4-triazol-3-yl)methoxy)phenyl)piperazin-1-yl)ethyl)-8-(furan-2-yl)thiazolo[5,4-e][1,2,4]triazolo[1,5-c]pyrimidin-2(3H)-one] yielded an IC50 (A2A receptor; [1]) of 0.6 nM, an IC50 (A2A receptor; [2]) of 9 nM and an IC50 (A2A receptor; [3]) of 378 nM. For the same molecule, the efflux ratio at 120 min, 2 μM (in vitro) was 15.
